Assay results published in patent US20250115607A1, “PYRIDINE DERIVATIVES” (Hoffmann-La Roche Inc., priority 2022, published 2025).

Tests used:
Type in all cases: biochemical
SIK2 = SIK2 (Homo sapiens (Human), UniProt Q9H0K1); assay: Phosphorylation assay SIK2 (RapidFire mass spectrometry); settings: 0.5 nM SIK2, CHK-peptide, ATP, 30 min pre-incubation, 45 min incubation; read-out: SIK2 RF IC50
Method: (§1) In the presence of SIK2 (resp. SIK1 or SIK3) and ATP the CHK-peptide ([…] with C-terminal arginine amide modification) were phosphorylated at one of the four feasible serine's. Only one phosphorylation is observed under the assay conditions. 60 nl of each compound dilution series (12 point; dilution factor 3, generally 30 μM to 170 pM) in DMSO were transferred by acoustic dispensing to the assay plate and 30 minutes pre-incubated (ambient temperature) after the addition of 5 μl SIK1 (5 nM) resp. 5 μl SIK2 (0.5 nM) or 7 μl SIK3 (1.5 nM) in assay-buffer (12.5 mM HEPES (pH 7.0), 10 mM magnesium acetate, 0.005% BSA). 10 μM CHK-peptide solution and 5 μl of 100 μM ATP for SIK1 & SIK2 resp. 3 μl for SIK3 in assay-buffer were added and incubated ambient for 45 minutes. 40 μl of 0.125% formic acid in water were added to quench the reaction. RapidFire (RF) Mass Spectrometry was utilized for data generation as described below. The multiple charged species (3-5 charges) for the phosphorylated and non-phosphorylated form measured by MRM (Multiple Reaction Monitoring; API5000 or 6500+) or EIC (Extracted Ion Current; QToF) were summed up and the ratio calculated (sum phosphorylated species/sum all species) for data evaluation. Normalization was performed by Genedata software based on the non-inhibition control DMSO and the commercially available STK inhibitor @1 μM YKL-05-099 (CAS number 1936529-65-5). The results of the assay are expressed in half-maximal inhibitory concentrations (IC50s) and are summarized below in Table 1.
(§2) Samples were aspirated by vacuum for max. 600 ms and loaded to C4-cartridge (Agilent; #G9203A) for 3000 ms@1.5 ml/min with 0.1% formic acid in water. Afterwards samples were transferred to the API5000 (API6500+) or QToF mass spectrometer for 4000 ms@1.25 ml/min with 90% acetonitrile; 10% water; 0.007% TFA; 0.093 formic acid. The cartridge was reconditioned for additional 500 ms with 0.1% formic acid in water.
(§3) All MS analyses using the following MS-setup in MRM mode: Electrospray positive; Ion Spray Voltage: 4000V; Temperature: 550° C.; Collision Gas: 5; Curtain Gas: 15; Gas 1: 40; Gas 2: 42; EP: 10. DP=declustering potential; CE=collision energy; CXP=cell exit potential.
(§4) All MS analyses using the following MS-setup in Mode MS: Dual AJS Electrospray positive; VCap: 3000V; Drying & Sheath gas: 340° C.@81/min; Nebulizer: 60 psig; Nozzle Voltage: 2000V; Fragmentor: 130V; Skimmer: 35V; Oct1 RF Vpp: 700V; Ref masses on@5 spectra/s

SIK3 = SIK3 (Homo sapiens (Human), UniProt Q9Y2K2); assay: Phosphorylation assay SIK3 (RapidFire mass spectrometry); settings: 1.5 nM SIK3, CHK-peptide, ATP, 30 min pre-incubation, 45 min incubation; read-out: SIK3 RF IC50
Sequence of SIK3 (Q9Y2K2 whole entry): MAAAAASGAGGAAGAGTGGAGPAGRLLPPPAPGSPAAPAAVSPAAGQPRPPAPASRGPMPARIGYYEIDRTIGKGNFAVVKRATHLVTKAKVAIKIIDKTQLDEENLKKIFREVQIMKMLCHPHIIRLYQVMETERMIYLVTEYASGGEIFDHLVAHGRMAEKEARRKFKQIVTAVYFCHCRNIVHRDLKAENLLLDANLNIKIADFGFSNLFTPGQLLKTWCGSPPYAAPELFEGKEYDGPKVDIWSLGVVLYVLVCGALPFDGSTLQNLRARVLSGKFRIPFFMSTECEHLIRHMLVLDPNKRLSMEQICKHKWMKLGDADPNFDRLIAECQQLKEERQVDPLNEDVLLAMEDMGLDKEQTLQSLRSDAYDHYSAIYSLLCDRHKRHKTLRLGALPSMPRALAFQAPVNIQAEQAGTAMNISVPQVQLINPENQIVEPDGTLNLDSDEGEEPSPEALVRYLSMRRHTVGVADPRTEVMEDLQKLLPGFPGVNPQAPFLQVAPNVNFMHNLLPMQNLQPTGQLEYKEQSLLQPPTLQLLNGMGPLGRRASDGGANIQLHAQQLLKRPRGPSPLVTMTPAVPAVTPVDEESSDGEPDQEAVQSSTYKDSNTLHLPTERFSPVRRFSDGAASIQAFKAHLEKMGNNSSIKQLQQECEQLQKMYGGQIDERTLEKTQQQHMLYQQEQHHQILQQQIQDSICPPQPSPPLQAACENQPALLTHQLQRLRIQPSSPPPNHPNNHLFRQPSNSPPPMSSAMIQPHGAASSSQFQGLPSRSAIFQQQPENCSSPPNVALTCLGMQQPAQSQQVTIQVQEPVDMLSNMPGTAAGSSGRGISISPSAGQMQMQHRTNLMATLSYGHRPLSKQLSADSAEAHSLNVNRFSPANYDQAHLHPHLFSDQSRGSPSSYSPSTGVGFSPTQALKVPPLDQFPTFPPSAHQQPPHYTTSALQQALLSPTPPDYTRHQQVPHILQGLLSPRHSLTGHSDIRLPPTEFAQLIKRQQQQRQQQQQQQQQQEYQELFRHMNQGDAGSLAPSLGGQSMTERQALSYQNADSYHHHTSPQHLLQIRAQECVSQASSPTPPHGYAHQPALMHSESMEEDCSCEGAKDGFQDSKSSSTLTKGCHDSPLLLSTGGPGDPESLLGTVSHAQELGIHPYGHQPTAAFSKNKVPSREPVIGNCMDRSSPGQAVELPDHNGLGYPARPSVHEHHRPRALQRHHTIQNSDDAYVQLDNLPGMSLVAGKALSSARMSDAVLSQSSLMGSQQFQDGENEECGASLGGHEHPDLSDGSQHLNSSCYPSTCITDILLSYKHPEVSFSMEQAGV
Method: as §1, §2, §3, §4

SIK1 = SIK1 (Homo sapiens (Human), UniProt P57059); assay: Phosphorylation assay SIK1 (RapidFire mass spectrometry); settings: 5 nM SIK1, CHK-peptide, ATP, 30 min pre-incubation, 45 min incubation; read-out: SIK1 RF IC50
Sequence of SIK1 (P57059 whole entry): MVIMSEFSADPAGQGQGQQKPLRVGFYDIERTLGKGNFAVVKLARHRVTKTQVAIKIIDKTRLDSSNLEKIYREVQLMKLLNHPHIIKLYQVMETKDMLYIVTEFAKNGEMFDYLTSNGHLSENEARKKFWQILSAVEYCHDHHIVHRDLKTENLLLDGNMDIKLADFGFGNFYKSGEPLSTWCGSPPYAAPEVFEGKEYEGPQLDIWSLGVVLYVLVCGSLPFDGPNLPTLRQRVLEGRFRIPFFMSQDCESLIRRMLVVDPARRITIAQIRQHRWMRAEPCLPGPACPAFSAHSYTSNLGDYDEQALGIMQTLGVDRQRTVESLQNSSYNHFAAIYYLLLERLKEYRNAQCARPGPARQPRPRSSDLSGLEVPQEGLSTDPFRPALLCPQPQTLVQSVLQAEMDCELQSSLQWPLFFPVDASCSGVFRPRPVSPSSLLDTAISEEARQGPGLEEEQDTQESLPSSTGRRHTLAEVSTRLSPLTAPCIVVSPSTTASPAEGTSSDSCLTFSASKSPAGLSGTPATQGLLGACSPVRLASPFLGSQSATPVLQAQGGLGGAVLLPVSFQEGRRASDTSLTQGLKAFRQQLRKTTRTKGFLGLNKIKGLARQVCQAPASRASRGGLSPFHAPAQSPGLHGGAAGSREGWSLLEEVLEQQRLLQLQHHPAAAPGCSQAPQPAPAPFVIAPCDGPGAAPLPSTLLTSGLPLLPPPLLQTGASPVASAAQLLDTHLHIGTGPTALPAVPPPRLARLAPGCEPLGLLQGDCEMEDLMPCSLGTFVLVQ
Method: as §1, §2, §3, §4

Sequence of SIK2 (Q9H0K1 whole entry): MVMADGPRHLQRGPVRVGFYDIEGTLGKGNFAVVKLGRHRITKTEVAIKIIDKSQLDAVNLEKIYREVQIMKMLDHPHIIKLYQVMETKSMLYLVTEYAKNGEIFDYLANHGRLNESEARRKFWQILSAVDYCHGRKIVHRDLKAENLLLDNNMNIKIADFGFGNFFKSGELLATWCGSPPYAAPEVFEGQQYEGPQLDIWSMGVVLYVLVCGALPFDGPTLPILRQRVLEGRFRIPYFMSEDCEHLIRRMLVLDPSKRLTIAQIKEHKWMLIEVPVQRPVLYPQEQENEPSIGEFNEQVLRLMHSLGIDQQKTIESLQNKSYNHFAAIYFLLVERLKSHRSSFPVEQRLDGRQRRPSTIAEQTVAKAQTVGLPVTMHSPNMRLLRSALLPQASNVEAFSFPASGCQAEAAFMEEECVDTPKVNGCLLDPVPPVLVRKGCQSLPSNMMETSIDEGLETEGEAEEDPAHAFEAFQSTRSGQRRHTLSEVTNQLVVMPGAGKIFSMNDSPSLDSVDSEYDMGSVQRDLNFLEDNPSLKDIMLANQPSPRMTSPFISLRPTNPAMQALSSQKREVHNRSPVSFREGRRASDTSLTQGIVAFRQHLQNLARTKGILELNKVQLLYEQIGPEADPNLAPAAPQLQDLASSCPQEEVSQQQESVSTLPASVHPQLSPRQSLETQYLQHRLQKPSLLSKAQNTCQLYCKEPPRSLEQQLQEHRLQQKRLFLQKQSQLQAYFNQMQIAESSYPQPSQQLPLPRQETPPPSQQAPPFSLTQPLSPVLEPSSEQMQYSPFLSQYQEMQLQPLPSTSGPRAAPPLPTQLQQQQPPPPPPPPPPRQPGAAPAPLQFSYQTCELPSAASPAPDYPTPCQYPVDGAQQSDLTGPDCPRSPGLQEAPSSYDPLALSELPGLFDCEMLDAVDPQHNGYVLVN

Row | SMILES | IC50 (SIK2) [µM] | IC50 (SIK3) [µM] | IC50 (SIK1) [µM]
1 | Cc1ccc(Nc2cc3ncn(-c4ccc(C(C)O)c(-c5cn(CC(F)(F)F)nc5C)n4)c3cn2)nn1 (stereo not drawn) [Example 4, 1-[6-[6-[(6-Methylpyridazin-3-yl)amino]imidazo[4,5-c]pyridin-3-yl]-2-[3-methyl-1-(2,2,2-trifluoroethyl)pyrazol-4-yl]-3-pyridyl]ethanol] | 0.003 | 0.003 | 0.396
2 | Cc1ccc(Nc2cc3ncn(-c4ccc(C(C)O)c(-n5nc(C#N)cc5C)n4)c3cn2)cn1 (stereo not drawn) [Example 3, 1-[3-(1-Hydroxyethyl)-6-[6-[(6-methyl-3-pyridyl)amino]imidazo[4,5-c]pyridin-3-yl]-2-pyridyl]-5-methyl-pyrazole-3-carbonitrile] | 0.022 | 0.022 | 0.078
3 | Cc1ccc(Nc2cc3ncn(-c4ccc(C(C)O)c(-n5nc(C(F)F)cc5C)n4)c3cn2)nn1 (stereo not drawn) [Example 7, 1-[2-[3-(difluoromethyl)-5-methyl-pyrazol-1-yl]-6-[6-[(6-methylpyridazin-3-yl)amino]imidazo[4,5-c]pyridin-3-yl]-3-pyridyl]ethanol] | 0.016 | 0.007 | 0.879
4 | CC(=O)c1ccc(-n2cnc3cc(N4CCOc5cc(C)nnc54)ncc32)nc1-n1nc(C#N)cc1C [Example 6, 1-[3-Acetyl-6-[6-(3-methyl-6,7-dihydropyridazino[4,3-b][1,4]oxazin-8-yl)imidazo[4,5-c]pyridin-3-yl]-2-pyridyl]-5-methyl-pyrazole-3-carbonitrile] | 2.54 | 3.29 | 17.4

The remaining lines, values ahead:

Row | IC50 (SIK2) [µM] | IC50 (SIK3) [µM] | IC50 (SIK1) [µM] | SMILES
5 | 0.005 | 0.003 | 0.366 | Cc1ccc(Nc2cc3ncn(-c4ccc(C(C)O)c(-n5nc(C#N)cc5C)n4)c3cn2)nn1 (stereo not drawn) [Example 2, 1-[3-(1-Hydroxyethyl)-6-[6-[(6-methylpyridazin-3-yl)amino]imidazo[4,5-c]pyridin-3-yl]-2-pyridyl]-5-methyl-pyrazole-3-carbonitrile]
6 | 0.042 | 0.121 | 4.52 | CC(=O)c1ccc(-n2cnc3cc(Nc4ccc(C)nn4)ncc32)nc1-n1nc(C#N)cc1C [Example 1, 1-[3-Acetyl-6-[6-[(6-methylpyridazin-3-yl)amino]imidazo[4,5-c]pyridin-3-yl]-2-pyridyl]-5-methyl-pyrazole-3-carbonitrile]
